Converted amounts (≈) assume the structure as drawn.
How the values were obtained:
Type in all cases: cell-based
[1] = system: S. aureus ASAU1028 (CA-MRSA, USA400); assay: MIC assay, S. aureus ASAU1028; details: Staphylococcus aureus, read-out: MIC ASAU 1028
Protocol: (§1) The in vitro MIC for bacterial isolates may be obtained in the following manner: a test compound is incorporated into a series of two-fold dilutions in cation adjusted Mueller-Hinton broth (CAMHB). Different bacterial strains diluted to provide a uniform inoculum are added to the CAMHB containing test compounds. A well without test compound is included for each strain as a growth control. […] The procedures used in these experiments are generally those standardized by the Clinical and Laboratory Standards Institute (CLSI), as set forth in the CLSI publication entitled “M7-A7. Methods for dilution antimicrobial susceptibility tests for bacteria that grow aerobically; approved standard-seventh edition.” (2006), which is incorporated by reference as if fully set forth herein. The following exemplifies such a procedure although it is to be understood that modifications of the procedure may be implemented as required.
(§2) Two-fold dilutions of the test compounds are prepared in CAMHB at 2× the concentration range to be tested if the compounds are soluble in aqueous solution. Alternately, dimethylsulfoxide (DMSO) is used to prepare two-fold dilutions at 10× the concentration range to be tested. Reference drugs such as cefotaxime, vancomycin or imipenem are used as positive controls. A few isolated colonies are retrieved from a pure culture prepared on an agar plate and suspended in PBS until the turbidity of the suspension matches a 0.5 McFarland standard which is equal to approximately 10^8 sCFU/mL. This solution is further diluted in CAMHB to 10^6CFU/mL if compounds are diluted in CAMHB and 5×10^5 CFU/mL if compounds are diluted in DMSO. The CAMHB plates containing the compound dilutions are combined in equal volumes with the higher density inoculum, or 10 μL of the DMSO dilutions are added to the lower density inoculum. When S. aureus is the organism being tested and the compound is oxacillin, a beta-lactam or a carbacephem compound of the present invention, 2% NaCl is added to the growth media. The plates are then incubated for 16-20 hours at 35° C. The plates are then observed to determine which concentration of the test compound is the MIC.

[2] = system: S. aureus ASAU1033 (MRSA, CIP, ERY, CLIN, TET, GEN resistant); assay: MIC assay, S. aureus ASAU1033; details: Staphylococcus aureus, read-out: MIC ASAU 1033
Protocol: as §1, §2

[3] = system: S. aureus ASAU001 (Susceptible Organism ATCC 29213); assay: MIC assay, S. aureus ASAU001; details: Staphylococcus aureus, ATCC29213, read-out: MIC ASAU 001
Protocol: as §1, §2

[4] = system: S. aureus ASAU1043 (MRSA, CIP, ERY, CLI, GEN resistant); assay: MIC assay, S. aureus ASAU1043; details: Staphylococcus aureus, read-out: MIC ASAU 1043
Protocol: as §1, §2

[5] = system: S. aureus ASAU1029 (CA-MRSA, USA300); assay: MIC assay, S. aureus ASAU1029; details: Staphylococcus aureus, read-out: MIC ASAU 1029
Protocol: as §1, §2

MIC [1] | MIC [2] | MIC [3] | MIC [4] | MIC [5] | SMILES
1 to 8 µg/mL (≈ 1.63 to 13.1 µM) | > 8 µg/mL | ≤ 1 µg/mL | > 8 µg/mL |  | CNCCSCc1ncccc1SC1=C(C(=O)O)N2C(=O)[C@@H](NC(=O)/C(=N\OC)c3nc(N)sc3Cl)[C@H]2CC1 [41/1, (6R,7S,Z)-7-(2-(2-amino-5-chlorothiazol-4-yl)-2-(methoxyimino)acetamido)-3-(2-((2-(methylamino)ethylthio)methyl)pyridin-3-ylthio)-8-oxo-1-aza-bicyclo[4.2.0]oct-2-ene-2-carboxylic Acid]
1 to 8 µg/mL (≈ 2.02 to 16.2 µM) | > 8 µg/mL | ≤ 1 µg/mL | > 8 µg/mL | > 8 µg/mL | Nc1nc(/C(=N/O)C(=O)N[C@@H]2C(=O)N3C(C(=O)O)=C(Sc4cccnc4)CC[C@H]23)c(Cl)s1 [34/1, (6R,7S,Z)-7-(2-(2-amino-5-chlorothiazol-4-yl)-2-(hydroxyimino)acetamido)-8-oxo-3-(pyridin-3-ylthio)-1-aza-bicyclo[4.2.0]oct-2-ene-2-carboxylic Acid]
1 to 8 µg/mL (≈ 1.91 to 15.3 µM) | > 8 µg/mL | ≤ 1 µg/mL | > 8 µg/mL | > 8 µg/mL | CO/N=C(\C(=O)N[C@@H]1C(=O)N2C(C(=O)O)=C(Sc3cccnc3N)CC[C@H]12)c1nc(N)sc1Cl [40/1, (6R,7S)-7-(2-(2-amino-5-chlorothiazol-4-yl)-2-(methoxyimino)acetamido)-3-(2-aminopyridin-3-ylthio)-8-oxo-1-aza-bicyclo[4.2.0]oct-2-ene-2-carboxylic acid]
1 to 8 µg/mL (≈ 1.77 to 14.2 µM) | > 8 µg/mL | ≤ 1 µg/mL | > 8 µg/mL | 1 to 8 µg/mL (≈ 1.77 to 14.2 µM) | CO/N=C(\C(=O)N[C@@H]1C(=O)N2C(C(=O)O)=C(Sc3cccnc3CSCCN)CC[C@H]12)c1nsc(N)n1 [51/1, (6R,7S,Z)-7-(2-(5-amino-1,2,4-thiadiazol-3-yl)-2-(methoxyimino)acetamido)-3-(2-((2-aminoethylthio)methyl)pyridin-3-ylthio)-8-oxo-1-aza-bicyclo[4.2.0]oct-2-ene-2-carboxylic Acid]
> 8 µg/mL | > 8 µg/mL | ≤ 1 µg/mL | > 8 µg/mL | 1 to 8 µg/mL (≈ 2.01 to 16.1 µM) | CO/N=C(\C(=O)N[C@@H]1C(=O)N2C(C(=O)O)=C(Sc3nnc(N)s3)CC[C@H]12)c1nsc(N)n1 [49/1, (6R,7S,Z)-7-(2-(5-amino-1,2,4-thiadiazol-3-yl)-2-(methoxyimino)acetamido)-3-(5-amino-1,3,4-thiadiazol-2-ylthio)-8-oxo-1-aza-bicyclo[4.2.0]oct-2-ene-2-carboxylic Acid]
> 8 µg/mL | > 8 µg/mL | ≤ 1 µg/mL | > 8 µg/mL | > 8 µg/mL | CO/N=C(\C(=O)N[C@@H]1C(=O)N2C(C(=O)O)=C(Sc3cccnc3CN)CC[C@H]12)c1nc(N)sc1Cl [43/1, (6R,7S,Z)-7-(2-(2-amino-5-chlorothiazol-4-yl)-2-(methoxyimino)acetamido)-3-(2-(aminomethyl)pyridin-3-ylthio)-8-oxo-1-aza-bicyclo[4.2.0]oct-2-ene-2-carboxylic acid]
1 to 8 µg/mL (≈ 1.77 to 14.2 µM) | 1 to 8 µg/mL (≈ 1.77 to 14.2 µM) | ≤ 1 µg/mL | > 8 µg/mL | 1 to 8 µg/mL (≈ 1.77 to 14.2 µM) | CO/N=C(\C(=O)N[C@@H]1C(=O)N2C(C(=O)O)=C(Sc3ccncc3CSCCN)CC[C@H]12)c1nsc(N)n1 [52/1, (6R,7S,Z)-7-(2-(5-amino-1,2,4-thiadiazol-3-yl)-2-(methoxyimino)acetamido)-3-(3-((2-aminoethylthio)methyl)pyridin-4-ylthio)-8-oxo-1-aza-bicyclo[4.2.0]oct-2-ene-2-carboxylic acid]
≤ 1 µg/mL | 1 to 8 µg/mL (≈ 1.91 to 15.3 µM) | ≤ 1 µg/mL | 1 to 8 µg/mL (≈ 1.91 to 15.3 µM) | ≤ 1 µg/mL | NCc1ncccc1SC1=C(C(=O)O)N2C(=O)[C@@H](NC(=O)/C(=N\O)c3nc(N)sc3Cl)[C@H]2CC1 [31/1, (6R,7S,Z)-7-(2-(2-amino-5-chlorothiazol-4-yl)-2-(hydroxyimino)acetamido)-3-(2-(aminomethyl)pyridin-3-ylthio)-8-oxo-1-aza-bicyclo[4.2.0]oct-2-ene-2-carboxylic Acid]
1 to 8 µg/mL (≈ 1.81 to 14.5 µM) | > 8 µg/mL | ≤ 1 µg/mL | > 8 µg/mL | 1 to 8 µg/mL (≈ 1.81 to 14.5 µM) | CO/N=C(\C(=O)N[C@@H]1C(=O)N2C(C(=O)O)=C(Sc3cccnc3CCN)CC[C@H]12)c1nc(N)sc1Cl [39/1, (6R,7S,Z)-7-(2-(2-amino-5-chlorothiazol-4-yl)-2-(methoxyimino)acetamido)-3-(2-(2-aminoethyl)pyridin-3-ylthio)-8-oxo-1-aza-bicyclo[4.2.0]oct-2-ene-2-carboxylic Acid]
1 to 8 µg/mL (≈ 1.96 to 15.7 µM) | 1 to 8 µg/mL (≈ 1.96 to 15.7 µM) | ≤ 1 µg/mL | > 8 µg/mL | > 8 µg/mL | CO/N=C(\C(=O)N[C@@H]1C(=O)N2C(C(=O)O)=C(Sc3ccncc3)CC[C@H]12)c1nc(N)sc1Cl [37/1, (6R,7S,Z)-7-(2-(2-amino-5-chlorothiazol-4-yl)-2-(methoxyimino)acetamido)-8-oxo-3-(pyridin-4-ylthio)-1-aza-bicyclo[4.2.0]oct-2-ene-2-carboxylic Acid]
 | 1 to 8 µg/mL (≈ 1.86 to 14.9 µM) | ≤ 1 µg/mL | > 8 µg/mL | > 8 µg/mL | NCCc1ncccc1SC1=C(C(=O)O)N2C(=O)[C@@H](NC(=O)/C(=N\O)c3nc(N)sc3Cl)[C@H]2CC1 [32/1, (6R,7S,Z)-7-(2-(2-amino-5-chlorothiazol-4-yl)-2-(hydroxyimino)acetamido)-3-(2-(2-aminoethyl)pyridin-3-ylthio)-8-oxo-1-aza-bicyclo[4.2.0]oct-2-ene-2-carboxylic Acid]
1 to 8 µg/mL (≈ 2.17 to 17.3 µM) | > 8 µg/mL | ≤ 1 µg/mL | > 8 µg/mL | ≤ 1 µg/mL | Nc1nc(/C(=N/O)C(=O)N[C@@H]2C(=O)N3C(C(=O)O)=C(Sc4ccncc4)CC[C@H]23)ns1 [44/1, (6R,7S,Z)-7-(2-(5-amino-1,2,4-thiadiazol-3-yl)-2-(hydroxyimino)acetamido)-8-oxo-3-(pyridin-4-ylthio)-1-aza-bicyclo[4.2.0]oct-2-ene-2-carboxylic Acid]
≤ 1 µg/mL | > 8 µg/mL | ≤ 1 µg/mL | > 8 µg/mL | 1 to 8 µg/mL (≈ 1.96 to 15.7 µM) | Nc1nc(/C(=N/O)C(=O)N[C@@H]2C(=O)N3C(C(=O)O)=C(Sc4cccnc4N)CC[C@H]23)c(Cl)s1 [28/1, (6R,7S,Z)-7-(2-(2-amino-5-chlorothiazol-4-yl)-2-(hydroxyimino)acetamido)-3-(2-aminopyridin-3-ylthio)-8-oxo-1-aza-bicyclo[4.2.0]oct-2-ene-2-carboxylic Acid]
1 to 8 µg/mL (≈ 1.82 to 14.5 µM) | 1 to 8 µg/mL (≈ 1.82 to 14.5 µM) | ≤ 1 µg/mL | 1 to 8 µg/mL (≈ 1.82 to 14.5 µM) | ≤ 1 µg/mL | NCCSCc1ncccc1SC1=C(C(=O)O)N2C(=O)[C@@H](NC(=O)/C(=N\O)c3nsc(N)n3)[C@H]2CC1 [47/1, (6R,7S,Z)-7-(2-(5-amino-1,2,4-thiadiazol-3-yl)-2-(hydroxyimino)acetamido)-3-(2-((2-aminoethylthio)methyl)pyridin-3-ylthio)-8-oxo-1-aza-bicyclo[4.2.0]oct-2-ene-2-carboxylic Acid]
≤ 1 µg/mL | 1 to 8 µg/mL (≈ 1.84 to 14.7 µM) | ≤ 1 µg/mL | > 8 µg/mL | ≤ 1 µg/mL | CO/N=C(\C(=O)N[C@@H]1C(=O)N2C(C(=O)O)=C(Sc3nc(C)c(C)s3)CC[C@H]12)c1nc(N)sc1Cl [38/1, (6R,7S,Z)-7-(2-(2-amino-5-chlorothiazol-4-yl)-2-(methoxyimino)acetamido)-3-(4,5-dimethylthiazol-2-ylthio)-8-oxo-1-aza-bicyclo[4.2.0]oct-2-ene-2-carboxylic Acid]
1 to 8 µg/mL (≈ 2.07 to 16.5 µM) | > 8 µg/mL | ≤ 1 µg/mL | > 8 µg/mL | ≤ 1 µg/mL | Nc1nc(/C(=N/O)C(=O)N[C@@H]2C(=O)N3C(C(=O)O)=C(Sc4nnc(N)s4)CC[C@H]23)ns1 [45/1, (6R,7S,Z)-7-(2-(5-amino-1,2,4-thiadiazol-3-yl)-2-(hydroxyimino)acetamido)-3-(5-amino-1,3,4-thiadiazol-2-ylthio)-8-oxo-1-aza-bicyclo[4.2.0]oct-2-ene-2-carboxylic Acid]
≤ 1 µg/mL | 1 to 8 µg/mL (≈ 1.67 to 13.4 µM) | ≤ 1 µg/mL | 1 to 8 µg/mL (≈ 1.67 to 13.4 µM) | ≤ 1 µg/mL | CNCCSCc1ncccc1SC1=C(C(=O)O)N2C(=O)[C@@H](NC(=O)/C(=N\O)c3nc(N)sc3Cl)[C@H]2CC1 [29/1, (6R,7S,Z)-7-(2-(2-amino-5-chlorothiazol-4-yl)-2-(hydroxyimino)acetamido)-3-(2-((2-(methylamino)ethylthio)methyl)pyridin-3-ylthio)-8-oxo-1-aza-bicyclo[4.2.0]oct-2-ene-2-carboxylic acid]

Source: US8445476B2, “Carbacephem β-lactam antibiotics” (Achaogen, Inc., priority 2007, dated 2013)
